Experimental data taken from patent US20210396743A1 (priority 2020, published 2021).
Entries after “also recorded” stand apart in the source; their conditions may differ. Read-outs that look alike come from different tables or passages of the source. Residues, ends and D or L forms follow the SMILES beside them.

Columns and labels:
SdeA [1] = format: biochemical, L. pneumophila; settings: 100 μM analogue, 100 μM ubiquitin, 0.5 μM enzyme, emission 410 nm
SdeA181-1000 [2] = biological target: T1, SdeA181-1000 (Legionella pneumophila subsp. pneumophila, UniProt Q5ZTK4); format: biochemical, L. pneumophila
SdeA181-1000 [3] = biological target: T1, SdeA181-1000; format: biochemical, L. pneumophila; remark: listed apart in the source
SdeA [4] = biological target: SdeA (Legionella pneumophila subsp. pneumophila, UniProt Q5ZTK4); settings: cited from earlier work
SdeA181-1000 [5] = biological target: T1, SdeA181-1000; format: biochemical, L. pneumophila; remark: listed apart in the source

T1 sequence (Q5ZTK4 181-1000 limits assumed): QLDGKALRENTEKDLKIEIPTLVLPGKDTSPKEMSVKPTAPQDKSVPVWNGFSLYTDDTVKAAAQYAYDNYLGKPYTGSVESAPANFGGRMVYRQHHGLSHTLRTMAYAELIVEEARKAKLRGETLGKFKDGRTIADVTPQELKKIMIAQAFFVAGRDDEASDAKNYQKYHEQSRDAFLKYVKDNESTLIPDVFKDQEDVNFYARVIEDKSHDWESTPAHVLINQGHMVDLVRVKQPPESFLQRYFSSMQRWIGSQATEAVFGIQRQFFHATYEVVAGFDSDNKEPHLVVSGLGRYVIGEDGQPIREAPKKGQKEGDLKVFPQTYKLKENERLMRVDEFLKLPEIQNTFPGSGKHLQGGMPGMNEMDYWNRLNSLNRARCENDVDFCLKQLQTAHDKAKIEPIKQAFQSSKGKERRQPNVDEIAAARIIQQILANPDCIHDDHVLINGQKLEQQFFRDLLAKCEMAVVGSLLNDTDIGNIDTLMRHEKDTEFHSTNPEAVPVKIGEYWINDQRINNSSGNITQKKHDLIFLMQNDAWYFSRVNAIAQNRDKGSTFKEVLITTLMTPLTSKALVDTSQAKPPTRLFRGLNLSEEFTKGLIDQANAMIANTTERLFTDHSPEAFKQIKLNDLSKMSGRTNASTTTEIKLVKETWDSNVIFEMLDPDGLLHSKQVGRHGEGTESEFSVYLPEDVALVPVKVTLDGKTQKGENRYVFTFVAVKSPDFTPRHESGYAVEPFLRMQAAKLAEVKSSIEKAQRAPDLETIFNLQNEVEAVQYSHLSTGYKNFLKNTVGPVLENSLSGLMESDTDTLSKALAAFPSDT
Chain of SdeA (Legionella pneumophila subsp. pneumophila, UniProt Q5ZTK4) (Q5ZTK4 whole entry, looked up): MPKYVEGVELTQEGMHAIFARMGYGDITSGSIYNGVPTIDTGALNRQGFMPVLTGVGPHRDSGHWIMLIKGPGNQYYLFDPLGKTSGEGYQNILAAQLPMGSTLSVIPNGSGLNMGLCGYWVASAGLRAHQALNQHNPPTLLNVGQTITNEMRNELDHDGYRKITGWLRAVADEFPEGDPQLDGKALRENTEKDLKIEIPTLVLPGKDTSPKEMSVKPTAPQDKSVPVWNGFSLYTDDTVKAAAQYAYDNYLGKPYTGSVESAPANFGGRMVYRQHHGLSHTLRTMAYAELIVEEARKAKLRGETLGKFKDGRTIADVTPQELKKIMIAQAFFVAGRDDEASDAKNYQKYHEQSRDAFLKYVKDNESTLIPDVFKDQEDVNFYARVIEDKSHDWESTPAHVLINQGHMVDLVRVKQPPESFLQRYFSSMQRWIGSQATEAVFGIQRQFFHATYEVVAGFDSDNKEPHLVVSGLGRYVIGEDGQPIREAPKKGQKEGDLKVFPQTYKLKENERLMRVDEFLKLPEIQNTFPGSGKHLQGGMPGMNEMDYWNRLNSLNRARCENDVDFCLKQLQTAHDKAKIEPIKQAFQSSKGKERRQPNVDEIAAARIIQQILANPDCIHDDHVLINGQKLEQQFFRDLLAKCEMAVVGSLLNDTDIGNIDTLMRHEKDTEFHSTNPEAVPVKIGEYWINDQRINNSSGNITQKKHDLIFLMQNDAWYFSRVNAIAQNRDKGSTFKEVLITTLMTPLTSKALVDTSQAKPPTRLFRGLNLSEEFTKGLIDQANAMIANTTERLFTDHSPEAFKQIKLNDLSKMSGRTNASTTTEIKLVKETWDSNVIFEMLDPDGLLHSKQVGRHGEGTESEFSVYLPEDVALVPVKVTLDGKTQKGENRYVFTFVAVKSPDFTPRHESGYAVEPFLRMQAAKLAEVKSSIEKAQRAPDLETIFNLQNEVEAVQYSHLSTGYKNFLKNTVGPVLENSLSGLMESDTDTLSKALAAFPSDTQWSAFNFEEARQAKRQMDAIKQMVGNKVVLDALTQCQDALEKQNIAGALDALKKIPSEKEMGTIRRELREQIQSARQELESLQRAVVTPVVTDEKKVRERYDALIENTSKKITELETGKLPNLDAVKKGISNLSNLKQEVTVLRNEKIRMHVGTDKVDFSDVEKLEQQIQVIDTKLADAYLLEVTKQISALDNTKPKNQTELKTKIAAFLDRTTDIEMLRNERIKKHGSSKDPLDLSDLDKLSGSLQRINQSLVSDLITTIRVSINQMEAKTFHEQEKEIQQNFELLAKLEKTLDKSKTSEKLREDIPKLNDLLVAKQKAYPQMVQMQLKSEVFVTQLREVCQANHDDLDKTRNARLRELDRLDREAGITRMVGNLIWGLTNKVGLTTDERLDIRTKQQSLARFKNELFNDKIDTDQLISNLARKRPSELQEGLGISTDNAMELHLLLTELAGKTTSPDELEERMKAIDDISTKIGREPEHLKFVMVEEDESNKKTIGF

SMILES: NC(=O)c1ccc[n+]([C@@H]2O[C@H](COP(=O)(O)OP(=O)([O-])OC[C@H]3O[C@@H](c4snc5c(N)ncnc45)C(O)C3O)C(O)C2O)c1 (some centres unmarked) [N^tzAD^+]
- fluorescence increase on incubation with SdeA and Ub (SdeA [1]; listed as NtzAD+): lower fold increase in fluorescence intensity

SMILES: NC(=O)c1ccc[n+]([C@@H]2O[C@H](COP(=O)([O-])OP(=O)([O-])OC[C@H]3O[C@@H](n4cnc5c4nc[n+]4cc[nH]c54)C(O)[C@H]3O)[C@H](O)C2O)c1 (some centres unmarked) [εNAD^+, nicotinamide 1,N6-ethenoadenine dinucleotide]
- fluorescence increase on incubation with SdeA and Ub (SdeA [1]): increase in fluorescence emission at 410 nm

SMILES: CSCC[C@H](NC(=O)c1ccc(-c2c3ccc(=O)cc-3oc3cc(O)ccc23)c(C(=O)O)c1)C(=O)N[C@@H](CO)C(=O)N[C@@H](CO)C(=O)N[C@@H](CCSC)C(=O)N[C@@H](CC(N)=O)C(=O)N1CCC[C@H]1C(=O)N[C@@H](CCC(=O)O)C(=O)N[C@@H](Cc1ccc(O)cc1)C(=O)N[C@@H](CC(=O)O)C(N)=O [peptide] (HELM PEPTIDE1{[O=C(O)c1cc(C(=O)[*:2])ccc1-c1c2ccc(=O)cc-2oc2cc(O)ccc12].M.S.S.M.N.P.E.Y.D.[am]}$$$$V2.0)
- in-gel fluorescence of ubiquitinated peptide (SDS-PAGE) (SdeA181-1000 [2]): presence of a fluorescent band around 10 kDa
- ubiquitination of peptide by SdeA (fluorescence polarization) (SdeA181-1000 [3]): significant increase in FP
- Km (SdeA181-1000 [3]; read-out: apparent KM): ~80 µM

SMILES: Nc1ncnc2c1ncn2[C@@H]1O[C@H](COP(=O)(O)O)[C@@H](O)[C@H]1O [AMP, adenosine monophosphate]
- inhibitor of SdeA-catalyzed ubiquitination (previous study) (SdeA [4]): weak inhibitor
- inhibition of peptide ubiquitination (SdeA181-1000 [5]): inhibition of peptide ubiquitination; also recorded: impairment of peptide ubiquitination

SMILES: Nc1ncnc2c1ncn2[C@@H]1O[C@H](COP(=O)(O)OP(=O)(O)OC[C@H]2OC(O)[C@H](O)[C@@H]2O)[C@@H](O)[C@H]1O (some centres unmarked) [ADP-ribose]
- inhibition of peptide ubiquitination (SdeA181-1000 [5]): inhibition of peptide ubiquitination; also recorded: impairment of peptide ubiquitination
